Reference: the supplement of paper PMC8671470
Counter-ions that a name gives are not always drawn. ± gives the standard deviation of the averaged measurements.

Legend:
[1] = tested on: HL-60; experiment: cell viability (% survival relative to DMSO control); higher = less cytotoxic; conditions: 72 h
Outline: (§1)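 In 384-well plates, the full library was rescreened in duplicate on HL-60 cells in RPMI 1640 with 10% FBS, at 1–10,000 nM in five tenfold concentrations, for 72 h at 37 °C, 5% CO2. Each run also held DMSO or 100 nM of one of three metabolic inhibitors. Viability was measured by CellTiter-Glo and normalised to DMSO wells and to wells with proteasome inhibitor, present at 10 μM. Any area under the curve comes from four-parameter log-logistic fitting with drc and PharmacoGx.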

[2] = tested on: HL-60; experiment: area under dose-response curve (viability, 1 nM-10 uM) (fraction (0-1)); higher = more sensitive; conditions: 72 h
Outline: as §1

[3] = 0.001 µM, co-treatment: AZD3965 100 nM
[4] = 0.001 µM, co-treatment: DMSO vehicle
[5] = 0.001 µM, co-treatment: GSK2194069 100 nM
[6] = 0.001 µM, co-treatment: pictilisib 100 nM
[7] = 0.01 µM, co-treatment: AZD3965 100 nM
[8] = 0.01 µM, co-treatment: DMSO vehicle
[9] = 0.01 µM, co-treatment: GSK2194069 100 nM
[10] = 0.01 µM, co-treatment: pictilisib 100 nM
[11] = 0.1 µM, co-treatment: AZD3965 100 nM
[12] = 0.1 µM, co-treatment: DMSO vehicle
[13] = 0.1 µM, co-treatment: GSK2194069 100 nM
[14] = 0.1 µM, co-treatment: pictilisib 100 nM
[15] = 1 µM, co-treatment: AZD3965 100 nM
[16] = 1 µM, co-treatment: DMSO vehicle
[17] = 1 µM, co-treatment: GSK2194069 100 nM
[18] = 1 µM, co-treatment: pictilisib 100 nM
[19] = 10 µM, co-treatment: AZD3965 100 nM
[20] = 10 µM, co-treatment: DMSO vehicle
[21] = 10 µM, co-treatment: GSK2194069 100 nM
[22] = 10 µM, co-treatment: pictilisib 100 nM
[23] = co-treatment: GSK2194069 100 nM
[24] = co-treatment: pictilisib 100 nM

Row | Structure (SMILES) | cell viability [1, 3] | cell viability [1, 4] | cell viability [1, 5] | cell viability [1, 6] | cell viability [1, 7] | cell viability [1, 8] | cell viability [1, 9] | cell viability [1, 10] | cell viability [1, 11] | cell viability [1, 12] | cell viability [1, 13] | cell viability [1, 14] | cell viability [1, 15] | cell viability [1, 16] | cell viability [1, 17] | cell viability [1, 18] | cell viability [1, 19] | cell viability [1, 20] | cell viability [1, 21] | cell viability [1, 22] | area under dose-response curve ([2]; co-treatment: AZD3965 100 nM) | area under dose-response curve ([2]; co-treatment: DMSO vehicle) | area under dose-response curve [2, 23] | area under dose-response curve [2, 24]
1 | OC[C@H]1NC[C@H](O)[C@@H](O)[C@@H]1O [Duvoglustat] | 96.9 ± 6.2% | 99.3 ± 1.8% | 97.4 ± 5.2% | 97.9 ± 10% | 99.7 ± 3.4% | 95.3 ± 2.3% | 92.82 ± 0.14% | 108 ± 14% | 96.3 ± 3.1% | 102 ± 3.9% | 107 ± 1.9% | 108 ± 8.1% | 96.5 ± 7.2% | 102 ± 2.6% | 105 ± 8.7% | 109 ± 1.7% | 94 ± 10% | 101.5 ± 0.68% | 95.8 ± 6.5% | 106 ± 4.1% | < 0.0301 | < 0.0301 | < 0.0301 | < 0.0301
2 | O=C([O-])CC(O)(C(=O)[O-])C(O)C(=O)[O-].[K+].[K+].[K+] (configuration not stated) [Hydroxycitrate] | 87.2 ± 28% | 97.7 ± 6.6% | 101 ± 10% | 93.7 ± 14% | 94.9 ± 3.3% | 97.98 ± 0.11% | 99.09 ± 0.31% | 90.3 ± 14% | 100 ± 2.7% | 103.8 ± 0.85% | 103 ± 3.8% | 108 ± 10% | 106.2 ± 0.079% | 87.7 ± 10% | 95.3 ± 9.5% | 97.3 ± 11% | 97.3 ± 2.8% | 92.4 ± 6.2% | 98.1 ± 6.8% | 94.4 ± 9.3% | < 0.0301 | < 0.0301 | < 0.0301 | < 0.0301
3 | O=c1c(-c2ccc(O)cc2)coc2cc(O[C@@H]3O[C@H](CO)[C@@H](O)[C@H](O)[C@H]3O)ccc12 [Daidzin] | 94.4 ± 7.1% | 96.2 ± 3.1% | 96.5 ± 3.9% | 94 ± 11% | 104 ± 6.6% | 102 ± 5.1% | 105 ± 2.1% | 103 ± 11% | 102 ± 9.7% | 101.7 ± 0.79% | 102 ± 3.5% | 105 ± 3.9% | 84.8 ± 30% | 98.92 ± 0.91% | 98.7 ± 2.4% | 67.6 ± 43% | 107 ± 9.1% | 99.7 ± 1.7% | 101 ± 11% | 98.5 ± 12% | < 0.0301 | < 0.0301 | < 0.0301 | < 0.0301
4 | CCCCCN(C)CCC(O)(P(=O)(O)O)P(=O)(O)O [Ibandronate] | 101 ± 4% | 101 ± 3% | 98.3 ± 3.5% | 103 ± 12% | 90.6 ± 11% | 99.4 ± 3.6% | 98.1 ± 3.2% | 87.2 ± 3.4% | 108.2 ± 0.12% | 104 ± 2.7% | 104 ± 2.5% | 101 ± 3.7% | 94.15 ± 0.69% | 99.1 ± 3.3% | 94.4 ± 2.5% | 94.3 ± 2% | 99.33 ± 0.86% | 106 ± 1.4% | 99 ± 1.6% | 99.9 ± 3.8% | < 0.0301 | < 0.0301 | < 0.0301 | < 0.0301
5 | COc1ccc2c(NC(=O)Nc3cccc(C(F)(F)F)n3)ccnc2c1 | 100 ± 3.6% | 101.7 ± 0.71% | 95.4 ± 4.6% | 104 ± 10% | 99.88 ± 0.16% | 82.9 ± 21% | 95.5 ± 3% | 73.9 ± 48% | 104.1 ± 0.52% | 103 ± 2.9% | 99.2 ± 1.9% | 98.4 ± 18% | 101.3 ± 0.29% | 103 ± 5.3% | 95.9 ± 8.1% | 86.5 ± 24% | 101 ± 8.5% | 111 ± 1.3% | 92.5 ± 9.2% | 121 ± 12% | < 0.0301 | < 0.0301 | < 0.0301 | < 0.0301
6 | CCOC(=O)c1sc(NC(=O)c2ccco2)c(SC#N)c1C [CBR-5884] | 107.6 ± 1% | 104 ± 1.5% | 97.6 ± 3.5% | 107 ± 3.1% | 103 ± 1.6% | 102 ± 2.5% | 98.31 ± 0.17% | 101 ± 3.1% | 93.2 ± 23% | 98.9 ± 5.8% | 90.6 ± 12% | 81.8 ± 26% | 106 ± 3.2% | 105 ± 2.1% | 98.2 ± 3.5% | 101 ± 11% | 102 ± 6.6% | 100.8 ± 0.41% | 103 ± 3.9% | 88 ± 4.2% | < 0.0301 | < 0.0301 | < 0.0301 | < 0.0301
7 | CCCCCCCC/C=C\CCCCCCCC(=O)Nc1ccccc1 [Octadec-9-Enoic Acid Phenylamide] | 99.2 ± 1.6% | 94.5 ± 9.6% | 93 ± 1.7% | 98.2 ± 4.6% | 98.61 ± 0.52% | 91.3 ± 13% | 98 ± 9.1% | 99 ± 3.9% | 104 ± 4.4% | 103 ± 5.8% | 103 ± 4.3% | 106 ± 1.2% | 101 ± 1.6% | 101 ± 3.4% | 98.7 ± 4.8% | 108 ± 10% | 90.3 ± 8.5% | 105 ± 3.8% | 91.5 ± 6.8% | 91.3 ± 8.9% | < 0.0301 | < 0.0301 | < 0.0301 | < 0.0301
8 | CCN(CCO)CCCC(C)Nc1ccnc2cc(Cl)ccc12 (configuration not stated) [Hydroxychloroquine sulfate] | 91.8 ± 6% | 92.3 ± 6.9% | 97 ± 19% | 86.1 ± 14% | 97.2 ± 7.5% | 98.9 ± 4.7% | 101 ± 2.1% | 101 ± 1.4% | 105 ± 4% | 101 ± 6.6% | 111 ± 7.2% | 109 ± 7.7% | 96.7 ± 1.4% | 98.9 ± 6.2% | 99.5 ± 8% | 107 ± 11% | 101 ± 1.3% | 99.8 ± 2.9% | 104 ± 7.1% | 103 ± 9.1% | < 0.0301 | < 0.0301 | < 0.0301 | < 0.0301
